Source: US20250265710A1, “NON-INVASIVE LASER SPECKLE IMAGING OF EXTRA-EMBRYONIC BLOOD VESSELS” (California Institute of Technology, priority 2024, published 2025)
Like-named read-outs stand apart in the source and are kept apart here.

Tested on: chick embryonic heart
Description: These drugs were injected through the shell ventral to chick embryos at a developmental HH stage between HH16-19. The needle was guided to the embryos by the LLSCI system in live view mode.
In one example, before imaging, the eggs are injected with a drug by implementing a live view mode to ascertain the position of the embryo's heart and inserted a needle into the eggshell and the drug was injected into the area ventral to the embryo in a volume of 25-150 μL. This may result in a hole in the eggshell having a diameter between 0.6 and 0.8 mm. The hole can be covered by transparent tape to ensure the continued development of the embryo. After injection, the egg may be placed in an incubator (e.g., incubator 440 in FIG. 4) and imaged at regular intervals using a GUI (e.g., GUI 487 in FIG. 4). FIG. 22 is a schematic representation of a procedure for using LSCI imaging to determine the location of avian embryos for injection, according to an embodiment.
FIG. 23A depicts images of extraembryonic blood vessels of the control egg generated by the LSCI system 400 in FIG. 4 and images (frames) of a movie showing the dynamics of the blood vessels at time=3 minutes, time=34 minutes, time=73 minutes, time=129 minutes, time=250 minutes, and time=270 minutes. FIG. 23A also includes a time trace of BFI at these times. The time trace of the BFI is indicative of heart rate.
To quantify and characterize the effects of injecting a drug solution onto the CAM, an LSCI system was used to extract four features from the blood vessels images and blood flow graphs. FIG. 24 depicts examples of extraembryonic blood vessel images 2410, 2420 before and after feature extraction, and a heartbeat signal, according to embodiments. Blood vessel skeleton, branches, and the size of the CAM visualized. […] The LSCI system implemented the LSCI process 1400 shown in FIG. 14 to extract the features.
In various examples, the length of the blood vessels may be calculated as the total length of the vessel skeleton in the blood vessel image. In various examples, the number of branches may be determined by counting the branch points connecting the blood vessels and isolated vessel segments in the blood vessel images. In various examples, the vessel area may be obtained by calculating the area of the CAM in the blood vessel image. In various examples, the heart rate may be measured from the Fourier transform of the blood flow signal.
Tests were also performed on five eggs for each of the two Amlodipine concentrations. […] FIG. 25B includes a plot of heart rate 2530, a plot of length of blood vessels 2532, a plot of the number of branches 2540, and a plot of the size of the area vaculosa (AV) 2542 for test eggs injected with two different Amlodipine concentrations, according to embodiments.

Row | Compound | time after injection without begin of return of heart rate to normal levels (higher doses above 5 nmol) | time to heart rate nadir (higher doses above 5 nmol) | period over which heart rate dropped (low doses around 3 nmol) | heart rate an hour after injection (one egg, 50 μL solution with 3 nmole) | heart rate after injection (one egg, 50 μL solution with 3 nmole, dropped from 132 bpm pre-injection) | embryo viability (higher doses >60 nmol) | time to heart rate nadir (higher doses >60 nmol) | embryo development when incubated 7 days after the experiment (lowest dose tested (<50 nmol))
1 | COC(=O)C1=C(C)NC(C)=C(C(=O)OC)C1c1ccccc1[N+](=O)[O-] [Nifedipine] | > 100 min | 20 min | 40 min | 100 bpm | 94 bpm |  |  | 
2 | CCOC(=O)C1=C(COCCN)NC(C)=C(C(=O)OC)C1c1ccccc1Cl (centres unmarked) [Amlodipine] |  |  |  |  |  | embryo died at the time of injection, or its later development was heavily compromised | 20 min | developed normally
